pIC50: −log10 of the molar value.

Experimental findings from ChEMBL document CHEMBL3826955, “Steric structure-activity relationship of cyproheptadine derivatives as inhibitors of histone methyltransferase Set7/9” (Bioorg Med Chem, 2016) are described below.

This experiment has as its target T1, Histone-lysine N-methyltransferase SETD7 (Homo sapiens, UniProt Q8WTS6).
T1 sequence (Q8WTS6 whole entry): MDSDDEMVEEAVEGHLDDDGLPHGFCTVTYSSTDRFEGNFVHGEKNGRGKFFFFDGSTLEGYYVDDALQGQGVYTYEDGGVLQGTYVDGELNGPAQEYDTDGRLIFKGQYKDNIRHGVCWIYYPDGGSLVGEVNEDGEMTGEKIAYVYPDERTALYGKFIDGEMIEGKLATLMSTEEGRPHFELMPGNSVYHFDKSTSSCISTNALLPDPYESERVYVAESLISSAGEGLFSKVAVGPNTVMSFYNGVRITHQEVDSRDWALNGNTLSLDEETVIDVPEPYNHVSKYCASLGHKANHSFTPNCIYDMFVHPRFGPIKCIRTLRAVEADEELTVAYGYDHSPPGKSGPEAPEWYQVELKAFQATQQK
Kind of experiment: Inhibition of recombinant SET7/9 (unknown origin) using biotinylated histone H3-derived peptide/SAM as substrate after 60 mins by AlphaLISA assay. In general terms: Alpha assays give light when donor and acceptor beads are brought close together.
Broadly, the pIC50 is the IC50 on a negative log10 scale, so that one unit is a factor of ten. On to `CN1CCN(C2c3ccccc3Oc3ccccc32)CC1`, for which the pIC50 is < 4.00. With `CN1CCC(OC2c3ccccc3Oc3ccccc32)CC1` the figure was < 4.00; with `CN1CCC(OC2c3ccccc3Sc3ccccc32)CC1`, < 4.00; with `CN1CCN(C2c3ccccc3Sc3ccccc32)CC1`, < 4.00. With `CN1CCC(OC2c3ccccc3C=Cc3ccccc32)CC1` the figure was < 4.00; with `CN1CCN(C2c3ccccc3C=Cc3ccccc32)CC1`, < 4.00.

On to `CN1CCC(=C2c3ccccc3C=Cc3ccccc32)CC1` [CYPROHEPTADINE], for which the pIC50 is 5.47. With `CN1CCC(=C2c3ccccc3Sc3ccccc32)CC1` [PIMETHIXENE] the figure was 5.37.
